Reference: ChEMBL document CHEMBL1133932, “Synthesis and biological evaluation of L- and D-configurations of 2',3'-dideoxy-4'-C-methyl-3'-oxacytidine analogues” (Bioorg Med Chem Lett, 2001)

What follows are molecules tested on P388 (assay: In vitro inhibition of P388 leukemia cell replication by the compound). Details: Mus musculus.
Format: functional, cell-based
For `C[C@]1(CO)OCC(n2cc(F)c(N)nc2=O)O1` (some centres not stated), the IC50 was > 100 µM.
`CC1(CO)OCC(n2ccc(N)nc2=O)O1` (configuration not stated) gave an IC50 of 10 µM.
For `CC1(CO)OC[C@@H](n2cc(F)c(N)nc2=O)O1` (some centres not stated), the IC50 was > 100 µM.
For `CC1(CO)OCC(n2cc(F)c(N)nc2=O)O1` (configuration not stated), the IC50 was > 100 µM.
For `CC1(CO)OC[C@@H](n2ccc(N)nc2=O)O1` (some centres not stated), the IC50 was > 100 µM.
With `C[C@]1(CO)OCC(n2ccc(N)nc2=O)O1` (some centres not stated) the IC50 was > 100 µM.
`C[C@]1(CO)OCC(n2ccc(N)nc2=O)O1` (single isomer, unassigned) was tested, and the IC50 was 5 µM.
`C[C@]1(CO)OCC(n2cc(F)c(N)nc2=O)O1` (single isomer, unassigned) gave an IC50 of 50 µM.

Each molecule was assayed on L1210 (assay: In vitro inhibition of L1210 leukemia cell replication by the compound). Details: Mus musculus.
Format: functional, cell-based
`C[C@]1(CO)OCC(n2cc(F)c(N)nc2=O)O1` (some centres not stated) was tested, and the IC50 was > 100 µM.
`CC1(CO)OCC(n2ccc(N)nc2=O)O1` (configuration not stated) showed an IC50 of 50 µM.
For `CC1(CO)OC[C@@H](n2cc(F)c(N)nc2=O)O1` (some centres not stated), the IC50 was > 100 µM.
In the case of `CC1(CO)OC[C@@H](n2ccc(N)nc2=O)O1` (some centres not stated), the IC50 is reported as > 100 µM.
`C[C@]1(CO)OCC(n2ccc(N)nc2=O)O1` (some centres not stated) was tested, and the IC50 was > 100 µM.
Molecule `C[C@]1(CO)OCC(n2ccc(N)nc2=O)O1` (single isomer, unassigned) has an IC50 of 45 µM.
In the case of `C[C@]1(CO)OCC(n2cc(F)c(N)nc2=O)O1` (single isomer, unassigned), the IC50 is reported as > 100 µM.

These molecules were tested on B16-F10 (assay: In vitro inhibition of B16F10 melanoma cell replication by the compound). Details: Mus musculus.
Format: functional, cell-based
For `C[C@]1(CO)OCC(n2cc(F)c(N)nc2=O)O1` (some centres not stated), the IC50 was > 100 µM.
With `CC1(CO)OCC(n2ccc(N)nc2=O)O1` (configuration not stated) the IC50 was 100 µM.
`CC1(CO)OC[C@@H](n2cc(F)c(N)nc2=O)O1` (some centres not stated) was tested, and the IC50 was > 100 µM.
For `CC1(CO)OCC(n2cc(F)c(N)nc2=O)O1` (configuration not stated), the IC50 was > 100 µM.
With `CC1(CO)OC[C@@H](n2ccc(N)nc2=O)O1` (some centres not stated) the IC50 was > 100 µM.
In the case of `C[C@]1(CO)OCC(n2ccc(N)nc2=O)O1` (some centres not stated), the IC50 is reported as 100 µM.
With `C[C@]1(CO)OCC(n2ccc(N)nc2=O)O1` (single isomer, unassigned) the IC50 was 100 µM.
With `C[C@]1(CO)OCC(n2cc(F)c(N)nc2=O)O1` (single isomer, unassigned) the IC50 was > 100 µM.

Each molecule was assayed on CCRF-CEM (assay: In vitro inhibition of CCRF-CEM lymphoblastic leukemia cell replication by the compound). Details: Homo sapiens.
Format: functional, cell-based
With `C[C@]1(CO)OCC(n2cc(F)c(N)nc2=O)O1` (some centres not stated) the IC50 was > 100 µM.
Work on `CC1(CO)OCC(n2ccc(N)nc2=O)O1` (configuration not stated) yielded an IC50 of 30 µM.
With `CC1(CO)OC[C@@H](n2cc(F)c(N)nc2=O)O1` (some centres not stated) the IC50 was > 100 µM.
In the case of `CC1(CO)OCC(n2cc(F)c(N)nc2=O)O1` (configuration not stated), the IC50 is reported as > 100 µM.
`CC1(CO)OC[C@@H](n2ccc(N)nc2=O)O1` (some centres not stated) was tested, and the IC50 was > 100 µM.
With `C[C@]1(CO)OCC(n2ccc(N)nc2=O)O1` (some centres not stated) the IC50 was > 100 µM.
In the case of `C[C@]1(CO)OCC(n2ccc(N)nc2=O)O1` (single isomer, unassigned), the IC50 is reported as 30 µM.
For `C[C@]1(CO)OCC(n2cc(F)c(N)nc2=O)O1` (single isomer, unassigned), the IC50 was > 100 µM.

The molecules below were run on L1210 (assay: In vitro inhibition of L1210 leukemia cell replication by the compound at). Details: Mus musculus.
Format: functional, cell-based
With `CC1(CO)OCC(n2cc(F)c(N)nc2=O)O1` (configuration not stated) the IC50 was > 100 µM.
